The text below walks through data of patent publication US11014934B2, “Antiseptic drug” (AO “TATKHIMFARMPREPARATY”, priority 2017, dated 2021).

Read-outs that look alike come from different tables or passages of the source.

Holding throughout (assay): MIC, serial dilutions in Müller-Hinton broth
Holding throughout (type): cell-based

The subject of one assay is E. coli 1440. The method, then:
(§1) A comparative assessment of the spectrum of antibacterial action was carried out on archival and clinical strains of gram-positive and gram-negative microorganisms in accordance with the [Opredeleniye chuvstvitel'nosti mikroorganizmov k antibakterial'nym preparatam (Metodicheskiye ukazaniya MUK 4.2.1890-04). Utverzhdeny i vvedeny v deystviye Glavnym gosudarstvennym sanitarnym vrachom Rossiyskoy Federatsii G. G. Onishchenko 04.03.2004 g. Determination of the sensitivity of microorganisms to antibacterial drugs (Guidelines MUK 4.2.1890-04). Approved and put into effect by the Chief State Sanitary Doctor of the Russian Federation G. G. Onishchenko on 4 Mar. 2004].
(§2) The value of the minimum inhibitory concentration (MIC) was determined by the method of serial dilutions on Müller-Hinton broth using 96-well sterile plates. Two-fold dilutions of the test substances in a nutrient medium were prepared. The final concentrations were 1-128 ug/ml. The growth of cultures was assessed visually, comparing the growth of microorganisms in the presence of test compounds with the growth of culture without them. […] The first lowest concentration of the studied substance (from a series of consecutive dilutions), where bacterial growth is not visually determined, is considered to be the minimum inhibitory concentration (MIC). MIC was determined by the method of serial dilutions in broth with increment=2, so the differences of neighboring dilutions are not considered to be significant. In each experience there is a positive (broth with growing culture) and a negative (broth without growing culture) control.
(§3) To determine the MIC, 10 μl of culture medium was taken from those wells in which growth was not observed, and inoculation was performed on a dense Müller-Hinton broth. For the preparation of the inoculum, a pure, daily culture of gram-positive and gram-negative microorganisms grown on a dense nutrient medium was used. Nutrient medium is Müller-Hinton broth, which was prepared from dry media (Müller-Hinton broth, Acumedia, Baltimore), cultivation was carried out on agarized Müller-Hinton broth, including an additional 2% agar. The media were autoclaved at 121° C. for 15 minutes. In a sterile isotonic solution of sodium chloride, a suspension of microorganisms was prepared, adjusting the inoculum density to 0.5 according to the McFarland standard (1.5·10^8 CFU/ml). Then, the resulting inoculum was diluted to a concentration of 10^7 CFU/ml with Müller-Hinton broth. The inoculum was used within 15 minutes after preparation; the purity of the bacterial strains was monitored before each experiment.
(§4) 100 μl of Müller-Hinton broth was added to the wells of each plate; The tested substance was introduced into the first well at a concentration of 128 μg/ml in a volume of 100 μl and its concentration was adjusted to 0.5 μg/ml by consecutive two-fold dilution. Then, the prepared inoculum (100 μI) was added to each well, thereby diluting twice the concentration of the studied compounds. […] In addition, the purity of nutrient media and solvents was monitored. The plates were incubated in a thermostat at 37° C. for 24 hours. The growth of cultures was assessed visually, comparing the growth of microorganisms in the presence of test compounds with the growth of culture without them.
(§5) For the MIC was taken the minimum concentration of the studied compounds, providing complete suppression of the visible growth of the studied strains of microorganisms. The maximum value obtained in three independent experiments was taken as the MIC of the compound.

For a further assay, the system named is S. aureus 1065 MRSA. Here is the method: as §1, §2, §3, §4, §5
In another assay the test system is S. aureus 1053 MRSA. Here is the method: as §1, §2, §3, §4, §5
The test system of a further assay is E. faecium 25. The method, then:
as §1, §2, §3, §4, §5

The next assay deals with S. aureus 18. The method, then: as §1, §2, §3, §4, §5
In another assay the test system is Klebsiella spp. 12. Here is the method:
as §1, §2, §3, §4, §5

Another assay concerns S. aureus 22. Here is the method: as §1, §2, §3, §4, §5
Assay [1] concerns Ps. aeruginosa ATTC 27853. The method, then:
as §1, §2, §3, §4, §5

A further assay concerns A. baumannii 1440. The method, then:
as §1, §2, §3, §4, §5

Another assay deals with S. intermedius 1143 MRSA. The method, then: as §1, §2, §3, §4, §5
The test system of the next assay is S. aureus ATCC 29213. Here is the method:
as §1, §2, §3, §4, §5

Another assay relates to S. aureus 1053a. The method, then: as §1, §2, §3, §4, §5
The test system of another assay is Kl. pneumoniae 645 PR. Here is the method: as §1, §2, §3, §4, §5
In another assay the test system is Moraxella sp.829. The method, then:
as §1, §2, §3, §4, §5

The next assay deals with E. faecium 4402. The method, then: as §1, §2, §3, §4, §5
The next assay concerns Kl. pneumoniae 1812 PR. Here is the method: as §1, §2, §3, §4, §5
The subject of the next assay is E. coli MG 1655. The method, then: as §1, §2, §3, §4, §5
The test system of the next assay is E. faecium 3062. Here is the method: as §1, §2, §3, §4, §5
Another assay relates to A. baumannii 1425 PR. The method, then: as §1, §2, §3, §4, §5
Another assay relates to B. subtilis 168. Here is the method: as §1, §2, §3, §4, §5
In a further assay the test system is Kl. pneumoniae 1342 PR. The method, then: as §1, §2, §3, §4, §5
Another assay concerns Ps. aeruginosa 1959. Here is the method: as §1, §2, §3, §4, §5

With `CCCCCCCCCCCC[N+](C)(C)Cc1cnc(C[N+](C)(C)CCCCCCCCCCCC)c2c1COC(CC)O2` (stereo not drawn) [Compound I, 5,8-(Bis(methylene (N, N-dimethyl-N-dodecylammonium))-2-ethyl-4H-[1,3]dioxino [4,5-c]pyridiniumdichloride], the MIC is 32 µg/mL with E. coli 1440 (Escherichia coli, E. coli 1440, inoculum 10^7 CFU/ml, read-out: MIC); 2 µg/mL in the assay with S. aureus 1065 MRSA (Staphylococcus aureus, S. aureus 1065 MRSA, inoculum 10^7 CFU/ml, read-out: MIC); 2 µg/mL in the assay with S. aureus 1053 MRSA (Staphylococcus aureus, S. aureus 1053 MRSA, inoculum 10^7 CFU/ml, read-out: MIC); 0.03 µg/mL in the assay on E. faecium 25 (Enterococcus faecium, E. faecium 25, inoculum 10^7 CFU/ml, read-out: MIC); 4 µg/mL in the assay with S. aureus 18 (Staphylococcus aureus, S. aureus 18, inoculum 10^7 CFU/ml, read-out: MIC); 16 µg/mL in the assay with Klebsiella spp. 12 (Klebsiella spp. 12, inoculum 10^7 CFU/ml, read-out: MIC). The MIC in the assay on S. aureus 22 (Staphylococcus aureus, S. aureus 22, inoculum 10^7 CFU/ml, read-out: MIC) worked out at 1 µg/mL; in assay [1] (Pseudomonas aeruginosa, ATTC27853, Ps. aeruginosa ATTC 27853, inoculum 10^7 CFU/ml, read-out: MIC) it was 4 µg/mL; with A. baumannii 1440 (Acinetobacter baumannii, A. baumannii 1440, inoculum 10^7 CFU/ml, read-out: MIC), 8 µg/mL; with S. intermedius 1143 MRSA (S. intermedius 1143 MRSA, inoculum 10^7 CFU/ml, read-out: MIC), 4 µg/mL; in the assay with S. aureus ATCC 29213 (Staphylococcus aureus, ATCC29213, S. aureus ATCC 29213, inoculum 10^7 CFU/ml, read-out: MIC), 4 µg/mL; in the assay on S. aureus 1053a (Staphylococcus aureus, S. aureus 1053a, inoculum 10^7 CFU/ml, read-out: MIC), 2 µg/mL. Moreover, the MIC in the assay with Kl. pneumoniae 645 PR (Klebsiella pneumoniae, Kl. pneumoniae 645 PR, inoculum 10^7 CFU/ml, read-out: MIC) came out at 32 µg/mL; in the assay on Moraxella sp.829 (Moraxella sp.829, inoculum 10^7 CFU/ml, read-out: MIC), 4 µg/mL; in the assay with E. faecium 4402 (Enterococcus faecium, E. faecium 4402, inoculum 10^7 CFU/ml, read-out: MIC), 0.06 µg/mL; with Kl. pneumoniae 1812 PR (Klebsiella pneumoniae, Kl. pneumoniae 1812 PR, inoculum 10^7 CFU/ml, read-out: MIC), 64 µg/mL; in the assay with E. coli MG 1655 (Escherichia coli, MG1655, E. coli MG 1655, inoculum 10^7 CFU/ml, read-out: MIC), 2 µg/mL; in the assay on E. faecium 3062 (Enterococcus faecium, E. faecium 3062, inoculum 10^7 CFU/ml, read-out: MIC) it was 0.5 µg/mL. Besides, the MIC with A. baumannii 1425 PR (Acinetobacter baumannii, A. baumannii 1425 PR, inoculum 10^7 CFU/ml, read-out: MIC) is 8 µg/mL; in the assay on B. subtilis 168 (Bacillus subtilis, B. subtilis 168, inoculum 10^7 CFU/ml, read-out: MIC) it was 2 µg/mL; with Kl. pneumoniae 1342 PR (Klebsiella pneumoniae, Kl. pneumoniae 1342 PR, inoculum 10^7 CFU/ml, read-out: MIC) it was 32 µg/mL; with Ps. aeruginosa 1959 (Pseudomonas aeruginosa, Ps. aeruginosa 1959, inoculum 10^7 CFU/ml, read-out: MIC) it was 32 µg/mL.

`CCCCCCCCCCCCCC(=O)NCCC[N+](C)(C)Cc1ccccc1.O.[Cl-]` [Miramistin, benzyldimethyl [3-(myristoylamino)propyl]-ammonium chloride monohydrate]: the MIC in the assay with E. coli 1440 (Escherichia coli, 1440) is 64 µg/mL; in the assay on S. aureus 1065 MRSA (Staphylococcus aureus, MRSA), 8 µg/mL; in the assay on S. aureus 1053 MRSA (Staphylococcus aureus, MRSA) it was 4 µg/mL; with E. faecium 25 (Enterococcus faecium, 25), less than 0.5 µg/mL; in the assay with S. aureus 18 (Staphylococcus aureus, 18), 16 µg/mL; in the assay on Klebsiella spp. 12 (Klebsiella, SPP.12), greater than 64 µg/mL. Moreover, the MIC was 8 µg/mL against S. aureus 22 (Staphylococcus aureus, 22); greater than 64 µg/mL in [1] (Pseudomonas aeruginosa, ATTC27853); 64 µg/mL in the assay with A. baumannii 1440 (Acinetobacter baumannii, 1440); 8 µg/mL in the assay with S. intermedius 1143 MRSA; 16 µg/mL in the assay with S. aureus ATCC 29213 (Staphylococcus aureus, ATCC29213); 4 to 8 µg/mL against S. aureus 1053a (Staphylococcus aureus, 1053A). In addition, the MIC against Kl. pneumoniae 645 PR (Klebsiella pneumoniae, 645PR) was 64 µg/mL; in the assay on Moraxella sp.829 (Moraxella, SP.829), 32 µg/mL; against E. faecium 4402 (Enterococcus faecium, 4402), 4 µg/mL; with Kl. pneumoniae 1812 PR (Klebsiella pneumoniae, 1812PR), 64 µg/mL; with E. coli MG 1655 (Escherichia coli, MG1655), 8 µg/mL; in the assay on E. faecium 3062 (Enterococcus faecium, 3062), 0.5 µg/mL. Also, the MIC in the assay with A. baumannii 1425 PR (Acinetobacter baumannii, 1425PR) was 64 µg/mL; in the assay with B. subtilis 168 (Bacillus subtilis, 168), 2 µg/mL; against Kl. pneumoniae 1342 PR (Klebsiella pneumoniae, 1342PR), 64 µg/mL; in the assay with Ps. aeruginosa 1959 (Pseudomonas aeruginosa, 1959), 64 µg/mL.

With “alkyldimethyl(phenylmethyl) ammonium chloride [Benzalconium chloride]”, the MIC in the assay on E. coli 1440 (E. coli 1440, inoculum 10^7 CFU/ml) is 32 µg/mL; in the assay on S. aureus 1065 MRSA (S. aureus 1065 MRSA, inoculum 10^7 CFU/ml), 4 µg/mL; in the assay with S. aureus 1053 MRSA (S. aureus 1053 MRSA, inoculum 10^7 CFU/ml), 4 µg/mL; in the assay on E. faecium 25 (E. faecium 25, inoculum 10^7 CFU/ml), less than 0.5 µg/mL; against S. aureus 18 (S. aureus 18, inoculum 10^7 CFU/ml), less than 0.5 µg/mL; against Klebsiella spp. 12 (Klebsiella spp. 12, inoculum 10^7 CFU/ml) it was 2 µg/mL. Besides, the MIC in the assay with S. aureus 22 (S. aureus 22, inoculum 10^7 CFU/ml) was less than 0.5 µg/mL; in assay [1] (Ps. aeruginosa ATTC 27853, inoculum 10^7 CFU/ml) it was greater than 64 µg/mL; against A. baumannii 1440 (A. baumannii 1440, inoculum 10^7 CFU/ml) it was 32 µg/mL; in the assay with S. intermedius 1143 MRSA (S. intermedius 1143 MRSA, inoculum 10^7 CFU/ml), 4 µg/mL; against S. aureus ATCC 29213 (S. aureus ATCC 29213, inoculum 10^7 CFU/ml), 2 µg/mL; against S. aureus 1053a (S. aureus 1053a, inoculum 10^7 CFU/ml), 1 µg/mL. The MIC was found to be 16 µg/mL in the assay on Kl. pneumoniae 645 PR (Kl. pneumoniae 645 PR, inoculum 10^7 CFU/ml); 32 µg/mL in the assay with Moraxella sp.829 (Moraxella sp.829, inoculum 10^7 CFU/ml); 1 µg/mL against E. faecium 4402 (E. faecium 4402, inoculum 10^7 CFU/ml); 64 µg/mL against Kl. pneumoniae 1812 PR (Kl. pneumoniae 1812 PR, inoculum 10^7 CFU/ml); 2 µg/mL in the assay on E. coli MG 1655 (E. coli MG 1655, inoculum 10^7 CFU/ml); 1 µg/mL in the assay on E. faecium 3062 (E. faecium 3062, inoculum 10^7 CFU/ml). For the same compound, the MIC against A. baumannii 1425 PR (A. baumannii 1425 PR, inoculum 10^7 CFU/ml) was 32 µg/mL; in the assay on B. subtilis 168 (B. subtilis 168, inoculum 10^7 CFU/ml) it was 0.5 µg/mL; against Kl. pneumoniae 1342 PR (Kl. pneumoniae 1342 PR, inoculum 10^7 CFU/ml), 32 µg/mL; with Ps. aeruginosa 1959 (Ps. aeruginosa 1959, inoculum 10^7 CFU/ml) it was greater than 64 µg/mL.
